Data published in patent US20180177860A1, “VACCINE […] I[…] GREEN TEA EXTRACT, AND PREPARATION METHOD THEREFOR” (priority 2015, published 2018).

Legend:
[1] = 37% formaldehyde; cited from earlier work
[2] = target: T1, influenza hemagglutinin protein (Influenza A virus, UniProt P03452); test: LCMS/MS of hemagglutinin protein reacted with EGCG; conditions: EGCG modified in the form of dihydro epigallocatechin (C15H11O6)
T1 construct: host or cells: human cells
Description: In addition, the hemagglutinin protein reacted with EGCG was analyzed through liquid chromatography mass spectrometry (LCMS/MS). The protein bands stained with Coomassie blue were separated by in-gel digestion, subjected to alkylation and de-staining processes, and then prepared into peptide fragments using trypsin. The prepared peptide fragments were analyzed using LCMS/MS [(Q-Exactive mass spectrometer (Thermo Fisher Scientific, Bremen, Germany) coupled with an Easy-nLC system (Thermo Fisher Scientific, Odense, Denmark)].

T1 sequence (P03452 18-565): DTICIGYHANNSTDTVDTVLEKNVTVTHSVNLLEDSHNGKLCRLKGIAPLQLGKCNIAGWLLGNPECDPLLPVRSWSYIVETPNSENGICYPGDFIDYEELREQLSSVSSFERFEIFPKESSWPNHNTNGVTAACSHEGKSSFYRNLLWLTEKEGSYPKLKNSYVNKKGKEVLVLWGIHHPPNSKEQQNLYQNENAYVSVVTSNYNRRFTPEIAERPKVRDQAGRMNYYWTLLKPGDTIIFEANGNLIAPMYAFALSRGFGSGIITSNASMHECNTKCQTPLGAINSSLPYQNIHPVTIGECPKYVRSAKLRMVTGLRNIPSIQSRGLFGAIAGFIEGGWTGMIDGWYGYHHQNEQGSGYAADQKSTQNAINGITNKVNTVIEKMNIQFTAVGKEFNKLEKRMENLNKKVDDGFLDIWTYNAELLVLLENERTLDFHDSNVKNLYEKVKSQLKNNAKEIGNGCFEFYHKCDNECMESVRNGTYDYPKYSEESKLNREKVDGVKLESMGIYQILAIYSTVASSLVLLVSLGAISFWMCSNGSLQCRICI

| Molecule | amount that can lead to death in adults [1] [mL] | binding site of EGCG on hemagglutinin (LCMS/MS) [2] |
| --- | --- | --- |
| C=O [formaldehyde] | 30 |  |
| (−)-epigallocatechin gallate [EGCG] |  | bound to the cysteine residue, which is the 152nd amino acid of the influenza hemagglutinin protein |
